According to patent publication US20180224430A1, “Method of Estimating the Incidence of In Vivo Reactions to Chemical or Biological Agents Using In Vitro Experiments” (Coyne Scientific, LLC, priority 2015, published 2018):

How the values were obtained:
[1] = test system: cardiomyocytes derived from stem cells (differentiated induced pluripotent stem cells); assay: In vitro assay with Endpoint A (causally associated with cardiomyopathy) on stem-cell-derived cardiomyocytes from 100 donors; type: cell-based, human
Procedure: An in vitro assay is then identified whose endpoint—referred to herein as Endpoint A—includes one that is causally associated with one of the cardiotoxic effects of doxorubicin: cardiomyopathy. Concentrations of doxorubicin as prescribed by the in vitro assay's protocol are prepared in a concentration that corresponds to doses of 500 mg and 600 mg administered in vivo.
In vitro tests are conducted at these concentrations on a representative sample of cardiomyocytes derived from stem cells (the cardiomyocytes are differentiated induced pluripotent stem cells) originating from a sample of 100 donors, and then the donors are arrayed in order of ascending scores on Endpoint A.
The “Reaction Threshold Prediction Model” is selected as the mathematical transform in their procedure. It is noted from the doxorubicin clinical cardiotoxicity data mentioned above that 12% of the clinical trial participants experienced cardiomyopathy when treated at the 500 mg dose level. Using the in vitro test results above, the Endpoint A score is determined that is associated with the 88th Percentile member of the in vitro cohort of 100 donors (88 representing 100% minus the 12% of the sample in vivo who experienced cardiomyopathy following treatment with a 500 mg dose). The Endpoint A score reads 70 units.
Next, the in vitro assay of doxorubicin is repeated, with a concentration corresponding to a 600 mg dose administered in vivo, on a representative sample of cardiomyocytes derived from stem cells originating from a sample of 100 donors, and then the donors are arrayed in order of ascending scores on Endpoint A. This time, the Endpoint A score is detected for the donor at the 76th Percentile (76 representing 100% minus the […] of the sample in vivo who experienced cardiomyopathy following treatment with a 600 mg dose). This time, the Endpoint A score reads 65 units. […]

[2] = cited from earlier work

COc1cccc2c1C(=O)c1c(O)c3c(c(O)c1C2=O)C[C@@](O)(C(=O)CO)C[C@@H]3O[C@H]1C[C@H](N)[C@H](O)[C@H](C)O1 [doxorubicin]
Endpoint A score ([1]; concentration corresponding to 500 mg dose, 88th percentile member of 100 donors): 70 units
Endpoint A score ([1]; concentration corresponding to 600 mg dose, donor at 76th percentile of 100 donors): 65 units
Endpoint A score approximating threshold of impact (presumed toxicity threshold) ([1]; leads to incidences of cardiomyopathy in the range of 10 to 25 percent): 65-70
clinical trial participants who experienced cardiomyopathy ([2]; 500 mg dose level): 12%
sample in vivo who experienced cardiomyopathy ([2]; 600 mg dose): 23%
